{"source": "patent US20090081249A1", "about": "(priority 2007, published 2009)", "tested_on": "B/Hong-Kong/36/05, mutant strain, resistant to zanamivir and oseltamivir", "assay_type": "cell-based, influenza B"}
{"smiles": "CC(=O)N[C@H]1[C@H]([C@H](O)[C@H](O)CO)OC(C(=O)O)=C[C@@H]1N=C(N)N", "note": "[Zanamivir, zanamivir]", "values": [{"measurement": "IC50", "result": 210000, "unit": "nM"}]}
